Patent US20160016986A1, “STABILIZED NUCLEOTIDES FOR MEDICAL TREATMENT” (priority 2014, published 2016)
Where two headings read alike, the source gives them in different places.

Key:
[1] = system: HCV genotype 1; details: cited from earlier work
[2] = patients receiving high dosages of VX-135; cited from earlier work
[3] = human, in vivo; cited from earlier work
[4] = system: HCV replicon replication; test: Inhibition of HCV replication (HCV replicon in Huh-luc/neo cells; extrapolated to primary human hepatocytes); type: cell-based
[5] = Half-life of the active triphosphate in human hepatocytes; type: in vitro ADME; details: plated in 12-well format
Method: Human hepatocyte cells used for half-life determinations were human liver hepatocyte 12-well format cells and were seeded at 0.67 million cells per well. Canine hepatocyte cells used for half-life determinations were beagle dog liver hepatocyte 12-well format cells and were seeded at 0.67 million cells per well. Monkey hepatocyte cells used for half-life determinations were Cynomolgus monkey liver hepatocyte 12-well format cells, and were seeded at 0.9 million cells per well. Rat hepatocyte cells for half-life determinations were Sprague-Dawley (SD) rat liver hepatocyte 12-well format cells, and were seeded at 0.67 million cells per well. All cells were obtained from Life Technologies.

[6] = system: human hepatocytes; test: Determination of nucleoside concentrations (dephosphorylated 5′-OH nucleoside) in human hepatocyte media and cell extract; type: in vitro ADME; details: 20 μM Formula VII vs Formula II, 24 hours
Method: At 24 hours, media was removed and frozen. Cells were washed twice with cold PBS.
Supernatants were removed and analyzed by LC-MS/MS. […] Samples were centrifuged at 3000 rpm for 15 minutes. Supernatants were removed and analyzed by LC-MS/MS.
Hepatocyte media incubates were removed from the freezer, defrosted and vortexed. […] Supernatants were removed and analyzed by LC-MS/MS. […] Supernatants were removed and analyzed by LC-MS/MS.

[7] = system: human liver hepatocytes; test: Triphosphate levels in human hepatocytes after incubation with prodrug; details: incubation with 5 μM prodrug over 48 hours
Method: Fresh liver hepatocytes were received plated in a 12-well or 6-well format (Life Technologies, Catalogue #HMFN12 and #HMNF06). Upon receipt, shipping media was removed immediately and replaced with 1 mL or 2 mL pre-warmed culture medium (Supplemented modified Chee's Media; Xenotech LLC, Catalogue# K2300) for 12- and 6-well formats, respectively. Cells were acclimated overnight at 37° C. with 5% CO2 atmosphere. […] Stability of the compounds in the absence of cells was also assayed. […] Cells were washed twice with cold PBS. 70% cold Methanol (0.75 mL or 1.5 mL, for 12- and 6-well formats, respectively) containing Formula X as an internal standard was added to each well and cells were gently removed from the plate by scraping. The recovered cells suspended in the methanol solution were aspirated into a vial and frozen at −80° C.
Cell solutions were extracted overnight at −80° C. in 70% methanol, removed from the freezer, defrosted and vortexed. Tubes were centrifuged at 3000 rpm for 15 minutes at 4° C. Supernatants were removed and analyzed by LC-MS/MS. […] Supernatants were removed and analyzed by LC-MS/MS. […] The analytes were quantified using linear regression of calibration standard values with instrument response. […]
The general methods of Example 33 were used to determine compound concentrations. […] The results were plotted and the linear regression was calculated using Microsoft Excel.

[8] = system: HCV genotype 1, 2 or 3; details: once-daily 300 mg for seven days; cited from earlier work
[9] = system: HCV; details: several large clinical trials; cited from earlier work
[10] = beagle (dog), Sprague-Dawley (rat), cynomolgus monkey, range over human, dog, monkey and rat hepatocytes, read-out: half-life of active triphosphate in hepatocytes
[11] = 6 well plate (2 ml), 1.7 million cells per well
[12] = 12 well plate (1 ml), 0.67 million cells per well

In the case of `CC(C)OC(=O)[C@H](C)NP(=S)(OC[C@H]1O[C@@H](n2ccc(=O)[nH]c2=O)[C@](C)(O)[C@@H]1O)Oc1ccccc1` (single isomer, unassigned) [VX-135], the “completion of treatment rate (SVR12)” value ([1]; 200 mg VX-135 in combination with daclatasvir, 12 weeks of treatment) is given as 91%, the “sustained viral response rate four weeks after completion of treatment (SVR4)” value ([1]; 200 mg VX-135 in combination with daclatasvir, treatment-naïve genotype 1, intent-to-treat) is given as 83% and the adverse event ([1]; VX-135 in combination with daclatasvir, one patient) is given as “serious adverse event of vomiting/nausea”. For the same compound, the clinical toxicity finding [2] was “liver toxicity”.

In the case of `COc1nc(N)nc2c1ncn2[C@@H]1O[C@H](COP(=O)(N[C@@H](C)C(=O)OCC(C)(C)C)Oc2cccc3ccccc23)[C@@H](O)[C@@]1(C)O` (some centres unmarked) [BMS-986094], the clinical safety outcome [3] is listed as “death of a patient due to heart failure”.

Work on `[2H]c1cn([C@@H]2O[C@H](C([2H])([2H])O[P@@](=O)(N[C@@H](C)C(=O)OC(C)C)Oc3ccccc3)[C@@H](O)[C@@]2(C)O)c(=O)[nH]c1=O` [Formula II, (S)-isopropyl 2-(((S)-(((2R,3R,4R,5R)-5-(5-deutero-2,4-dioxo-3,4-dihydropyrimidin-1(2H)-yl)-3,4-dihydroxy-4-methyltetrahydrofuran-2-yl)dideuteromethoxy)(phenoxy)phosphoryl)amino)propanoate] yielded an EC50 ([4]; Hepatitis C virus, Hepatocyte, read-out: predicted EC50 in primary human hepatocytes) of 6.25 to 10 nM.

With `[2H]c1cn(C2OC(C([2H])([2H])OP(=O)(O)OP(=O)(O)OP(=O)(O)O)[C@@H](O)[C@@]2(C)O)c(=O)[nH]c1=O` (some centres unmarked) [Formula IV] the half-life [5, 10] was 10 to 30 h and the half-life ([5]; human, human hepatocytes, read-out: half-life of triphosphate) was over 24 h.

In the case of `C[C@@]1(O)[C@H](O)[C@@H](CO)O[C@H]1n1ccc(=O)[nH]c1=O` [Formula IX, 2′-C-methyluridine], the “higher concentration of undeuterated dephosphorylated 2′-methyl uridine compared to 5′-deuterated form (Formula VI), cell extract (intracellular)” value [6, 11] is reported as 2.8 fold, the “higher concentration of undeuterated dephosphorylated 2′-methyl uridine compared to 5′-deuterated form (Formula VI), first value, printed as cell extract” value [6, 11] is reported as 1.5 fold and the “higher concentration of undeuterated dephosphorylated 2′-methyl uridine (Formula IX) compared to 5′-deuterated form (Formula VI), cell extract (intracellular)” value [6, 12] is reported as 2.9 fold. The “higher concentration of undeuterated dephosphorylated 2′-methyl uridine (Formula IX) compared to 5′-deuterated form (Formula VI), media (extracellular)” value [6, 12] was 1.9 fold.

For `[2H]c1cn(C2OC(C([2H])([2H])O)[C@@H](O)[C@@]2(C)O)c(=O)[nH]c1=O` (some centres unmarked) [Formula VI, 5′-deuterated 2′-C-methyluridine], the “activity against hepatitis C viral replication” value ([4]; statement in description, poor substrate for nucleoside monophosphate kinase) was “little activity”.

With `C[C@@]1(F)[C@H](O)[C@@H](COP(=O)(O)OP(=O)(O)OP(=O)(O)O)O[C@H]1n1ccc(=O)[nH]c1=O` [GS-7977-TP] the “time of peak triphosphate levels in human hepatocytes” value [7] was 24 h and the half-life [5, 10] was 8 to 23 h.

For `CC(C)OC(=O)[C@@H](C)N[P@@](=O)(OC[C@H]1O[C@@H](n2ccc(=O)[nH]c2=O)[C@](C)(Cl)[C@@H]1O)Oc1ccccc1` [IDX21437], the “mean maximum reduction in viral load” value [8] is listed as 4.2-4.3 log 10 IU/mL.

For `CC(C)OC(=O)[C@H](C)N[P@](=O)(OC[C@H]1O[C@@H](n2ccc(=O)[nH]c2=O)C(C)(F)C1O)Oc1ccccc1` (some centres unmarked) [Sofosbuvir], the “sustained viral response (SVR) of twelve weeks, share of trial participants” value [9] is given as 50-90%.
